The source of these data is patent US20260007133A1, “HERBICIDAL COMPOSITION COMPRISING AZINE COMPOUNDS” (BASF SE, priority 2022, published 2026).

Common to all, as to format: in vivo
In assay [1] the test system is Echinochloa crus-galli. Put plainly: Greenhouse post-emergence (POST) herbicidal test on ECHCG. Conditions: for % activity: ECHCG POST. Here is the method:
(§1) The culture containers used were plastic pots containing loamy sand with approximately 3.0% of humus as substrate. The seeds of the test plants were sown separately for each species.
(§2) For the post-emergence treatment, the test plants were grown to a plant height of from 3 to 15 cm, depending on the plant habit, and only then treated with the active compounds which had been suspended or emulsified in water. To this end, the test plants were either sown directly, and grown in the same containers, or they were first grown separately as seedlings and transplanted into the test containers a few days prior to treatment.
(§3) Depending on the species, the plants were kept at 10-25° C. and 20-35° C., respectively.
(§4) The test period extended over 2 to 4 weeks. During this time, the plants were tended and their response to the individual treatments was evaluated.
(§5) Evaluation was carried out using a scale from 0 to 100. 100 means no emergence of the plants, or complete destruction of at least the above-ground parts, and 0 means no damage or normal course of growth. A good herbicidal activity is given at values of at least 70, and very good herbicidal activity is given at values of at least 85.
(§6) If not stated differently, the respective components A and B, and if appropriate, C were formulated as a 5% by weight strength emulsion concentrate and, with addition of the amount of solvent system, introduced into the spray liquor used for applying the active compound.
(§7) As indicated application was either post emergent (POST) at the respective growth stage (GS) of the weed (BBCH code), or pre-emergent (PRE). […]

Assay [2] deals with Euphorbia heterophylla. Put plainly: Greenhouse post-emergence (POST) herbicidal test on EPHHL. As to the method:
as §1, §2, §3, §4, §5, §6, §7

Assay [3] has as its system Geranium pusillum. Put plainly: Greenhouse post-emergence (POST) herbicidal test on GERPU. Conditions: for % activity: GERPU POST. Here is the method: as §1, §2, §3, §4, §5, §6, §7
Assay [4] has as its system Abutilon theophrasti. Briefly: Greenhouse pre-emergence (PRE) herbicidal test on ABUTH. Conditions: for % activity: 20 DAT. As to the method:
as §1
(§8) The containers were irrigated gently to promote germination and growth and subsequently covered with transparent plastic hoods until the plants had rooted.
as §3, §4, §5, §7

Assay [5] has as its system Alopecurus myosuroides. Put plainly: Greenhouse pre-emergence (PRE) herbicidal test on ALOMY. Conditions: Alopecurus myosuroides, pre-emergence, 432 h, read-out: % activity. Here is the method:
as §1, §8, §3, §4, §5, §7

Assay [6] deals with Commelina benghalensis. Briefly: Greenhouse pre-emergence (PRE) herbicidal test on COMBE. As to the method: as §1, §8, §3, §4, §5, §7
In assay [7] the test system is Echinochloa crus-galli. Briefly: Greenhouse pre-emergence (PRE) herbicidal test on ECHCG. Conditions: Echinochloa crus-galli, pre-emergence, 432 h, read-out: % activity. As to the method: as §1, §8, §3, §4, §5, §7
The subject of assay [8] is Euphorbia heterophylla. Put plainly: Greenhouse pre-emergence (PRE) herbicidal test on EPHHL. Conditions: Euphorbia heterophylla, pre-emergence. As to the method:
as §1, §8, §3, §4, §5, §7

Assay [9] has as its system Lolium multiflorum. Briefly: Greenhouse pre-emergence (PRE) herbicidal test on LOLMU. Conditions: Lolium multiflorum, pre-emergence, read-out: % activity. Here is the method:
as §1, §8, §3, §4, §5, §7

The test system of assay [10] is Amaranthus retroflexus. Put plainly: Greenhouse post-emergence (POST) herbicidal test on AMARE. As to the method: as §1, §2, §3, §4, §5, §6, §7
Assay [11] deals with Digitaria sanguinalis. Briefly: Greenhouse post-emergence (POST) herbicidal test on DIGSA. Here is the method:
as §1, §2, §3, §4, §5, §6, §7

In assay [12] the test system is Abutilon theophrasti. Briefly: Greenhouse post-emergence (POST) herbicidal test on ABUTH. Conditions: for % activity: ABUTH POST. Here is the method: as §1, §2, §3, §4, §5, §6, §7
The subject of assay [13] is Setaria viridis. Briefly: Greenhouse pre-emergence (PRE) herbicidal test on SETVI.
Description: as §1
For the pre-emergence treatment, the active compounds, suspended or emulsified in water, were applied directly after sowing by means of finely distributing nozzles. The containers were irrigated gently to promote germination and growth and subsequently covered with transparent plastic hoods until the plants had rooted. This cover caused uniform germination of the test plants unless this was adversely affected by the active compounds.
as §3, §4, §5, §6, §7

Assay [14] concerns Ambrosia artemisiifolia. Put plainly: Greenhouse pre-emergence (PRE) herbicidal test on AMBEL. Conditions: PRE, AMBEL. Here is the method:
as §1, §8, §3, §4, §5, §7

The mark [15] stands for this setting: Digitaria sanguinalis, post-emergence, 432 h, read-out: % activity.
The mark [16] stands for this setting: Geranium pusillum, post-emergence, 432 h, read-out: % activity.
Where [17] appears, read: Abutilon theophrasti, pre-emergence, read-out: % activity.
The mark [18] stands for this setting: Echinochloa crus-galli, post-emergence, 480 h, read-out: % activity.

Regarding `O=C(O)COc1ccc(Cl)cc1Cl` [2,4-D], the “% activity” value in assay [1] (use rate 37.5 gai/ha) is 20%; in assay [2] (EPHHL POST, use rate 150 gai/ha), 65%; in assay [3] (use rate 150 gai/ha) it was 70%.
For the compound `N#Cc1cc(Br)c(O)c(Br)c1` [Bromoxynil, bromoxynil], the pest or weed control at 120 g/ha in assay [4] (Abutilon theophrasti, pre-emergence, 432 h, read-out: % activity) came out at 0%; in [5], 0%; in [7], 0%; in assay [9] (432 h) it was 0%; in assay [11] (setting [15]) it was 15%; in [3] (setting [16]), 20%. In addition, the pest or weed control at 30 g/ha was 0% in assay [5]; 0% in [6] (Commelina benghalensis, pre-emergence, 432 h, read-out: % activity); 0% in [7]; 0% in assay [8] (432 h, read-out: % activity); 0% in assay [9] (432 h); 0% in [10] (Amaranthus retroflexus, post-emergence, 432 h, read-out: % activity). The pest or weed control at 30 g/ha in [11] (setting [15]) was 0%; in assay [1] (Echinochloa crus-galli, post-emergence, 432 h, read-out: % activity), 0%; in assay [2] (Euphorbia heterophylla, post-emergence, 432 h, read-out: % activity) it was 70%; in [3] (setting [16]), 5%.
For `COc1c(Cl)ccc(Cl)c1C(=O)O` [Dicamba, dicamba], the inhibition at 31.25 g/ha in assay [12] (Abutilon theophrasti, post-emergence, POST, ABUTH, use rate 31.25 gai/ha) was found to be 60%; in [2] (Euphorbia heterophylla, post-emergence, POST, EPHHL, use rate 31.25 gai/ha), 10%. Further, the inhibition at 62.5 g/ha in assay [12] (Abutilon theophrasti, post-emergence, POST, ABUTH, use rate 62.5 gai/ha) stood at 65%; in [2] (Euphorbia heterophylla, post-emergence, POST, EPHHL, use rate 62.5 gai/ha) it was 35%.
On to `C/C(=N\NC(=O)Nc1cc(F)cc(F)c1)c1ncccc1C(=O)O` [Diflufenzopyr, diflufenzopyr], for which the inhibition at 3.8 g/ha in assay [4] (setting [17]), in [8] (read-out: % activity) and in [9] was 0% throughout. Also, the inhibition at 15 g/ha in assay [4] (setting [17]) is 0%; in assay [13] (Setaria viridis, pre-emergence, read-out: % activity), 50%.
Turning to `COC[C@H](C)N(C(=O)CCl)c1c(C)csc1C` [Dimethenamid-P, dimethenamid-P], the “% activity” value in [12] (use rate 50 gai/ha) was found to be 0%; in [12] (use rate 200 gai/ha), 25%; in assay [10] (AMARE POST, use rate 200 gai/ha) it was 0%.
With `CP(=O)(O)CCC(N)C(=O)O` (centres unmarked) [Glufosinate-Ammonium, glufosinate-ammonium], the inhibition at 75 g/ha stood at 30% in assay [12] (Abutilon theophrasti, post-emergence, 480 h, read-out: % activity); 0% in [1] (setting [18]); 35% in assay [3] (Geranium pusillum, post-emergence, 480 h, read-out: % activity). The inhibition at 150 g/ha in assay [11] (Digitaria sanguinalis, post-emergence, 480 h, read-out: % activity) amounted to 95%; in assay [1] (setting [18]), 30%; in assay [2] (Euphorbia heterophylla, post-emergence, 480 h, read-out: % activity), 45%.
As for `CCCC(=NOCC(C)Oc1ccc(Cl)cc1)C1=C(O)CC(C2CCCSC2)CC1=O` (centres unmarked) [Profoxydim, profoxydim], the “% activity” value stood at 20% in assay [12] (use rate 6.3 gai/ha); 60% in assay [11] (DIGSA POST, use rate 6.3 gai/ha); 80% in [1] (use rate 6.3 gai/ha); 85% in assay [1] (use rate 12.5 gai/ha); 0% in [3] (use rate 6.3 gai/ha).
With `C#CC(C)(C)NC(=O)c1cc(Cl)cc(Cl)c1` [Propyzamide, propyzamide], the pest or weed control at 250 g/ha in [4] (Abutilon theophrasti, pre-emergence, 432 h, PRE, ABUTH, Propyzamide solo 250 gai/ha, 18 DAT) stood at 0%; in assay [14] (Ambrosia artemisiifolia, pre-emergence, 432 h, Propyzamide solo 250 gai/ha, 18 DAT, read-out: % activity), 0%; in [8] (432 h, PRE, EPHHL, Propyzamide solo 250 gai/ha, 18 DAT, read-out: % activity) it was 10%; in assay [10] (Amaranthus retroflexus, post-emergence, 432 h, POST, AMARE, Propyzamide solo 250 gai/ha, 18 DAT, read-out: % activity), 20%; in assay [1] (Echinochloa crus-galli, post-emergence, 432 h, POST, ECHCG, Propyzamide solo 250 gai/ha, 18 DAT, read-out: % activity) it was 0%; in assay [2] (Euphorbia heterophylla, post-emergence, 432 h, POST, EPHHL, Propyzamide solo 250 gai/ha, 18 DAT, read-out: % activity), 0%. Moreover, the pest or weed control at 1000 g/ha in [4] (Abutilon theophrasti, pre-emergence, 432 h, PRE, ABUTH, Propyzamide solo 1000 gai/ha, 18 DAT) is 10%; in assay [8] (432 h, PRE, EPHHL, Propyzamide solo 1000 gai/ha, 18 DAT), 15%; in [12] (Abutilon theophrasti, post-emergence, 432 h, POST, ABUTH, Propyzamide solo 1000 gai/ha, 18 DAT), 5%; in assay [10] (Amaranthus retroflexus, post-emergence, 432 h, POST, AMARE, Propyzamide solo 1000 gai/ha, 18 DAT), 50%; in assay [1] (Echinochloa crus-galli, post-emergence, 432 h, POST, ECHCG, Propyzamide solo 1000 gai/ha, 18 DAT), 30%; in assay [3] (Geranium pusillum, post-emergence, 432 h, POST, GERPU, Propyzamide solo 1000 gai/ha, 18 DAT) it was 20%.
Consider `COc1cc(OC)n2nc(NS(=O)(=O)c3c(C(F)(F)F)ccnc3OC)nc2n1` [Pyroxsulam, pyroxsulam], for which the “% activity” value came to 0% in [4] (PRE, ABUTH, Pyroxsulam solo 0.25 gai/ha); 5% in [4] (PRE, ABUTH, Pyroxsulam solo 0.5 gai/ha); 15% in assay [14] (Pyroxsulam solo 0.25 gai/ha, 20 DAT); 10% in assay [6] (PRE, COMBE, Pyroxsulam solo 0.25 gai/ha, 20 DAT); 10% in assay [13] (PRE, SETVI, Pyroxsulam solo 0.25 gai/ha, 20 DAT).
